How the values were obtained:
YKL-5-124 = compound: C=CC(=O)Nc1ccc(C(=O)Nc2[nH]nc3c2CN(C(=O)N[C@H](CN(C)C)c2ccccc2)C3(C)C)cc1 [YKL-5-124]; assay: GR value, 72 h; higher = faster growth (1 = untreated, <0 = killing);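 note: breast cancer and non-malignant breast epithelial lines, nine half-log doses, viable cells counted by Hoechst and LIVE/DEAD dye imaging versus time-zero plates and DMSO controls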
THZ531 = compound: CN(C)C/C=C/C(=O)Nc1ccc(C(=O)N2CCC[C@@H](Nc3ncc(Cl)c(-c4c[nH]c5ccccc45)n3)C2)cc1 [THZ531]; assay: as above
Flavopiridol [1] = compound: T1, CN1CC[C@H](c2c(O)cc(O)c3c(=O)cc(-c4ccccc4Cl)oc23)[C@H](O)C1 [Flavopiridol]; assay: as above
THZ1 = compound: CN(C)C/C=C/C(=O)Nc1ccc(C(=O)Nc2cccc(Nc3ncc(Cl)c(-c4c[nH]c5ccccc45)n3)c2)cc1 [THZ1]; assay: as above
BSJ-03-123 [2] = compound: T2, CC(=O)c1c(C)c2cnc(Nc3ccc(N4CCN(CCOCCOCCOCCNC(=O)COc5cccc6c5C(=O)N(C5CCC(=O)NC5=O)C6=O)CC4)cn3)nc2n(C2CCCC2)c1=O [BSJ-03-123]; assay: as above
[3] = compound: CCN1CCN(Cc2ccc(Nc3ncc(F)c(-c4cc(F)c5nc(C)n(C(C)C)c5c4)n3)nc2)CC1; assay: as above
[4] = compound: CCc1cnn2c(NCc3ccc[n+]([O-])c3)cc(N3CCCC[C@H]3CCO)nc12; assay: as above
LEE011/Ribociclib = compound: CN(C)C(=O)c1cc2cnc(Nc3ccc(N4CCNCC4)cn3)nc2n1C1CCCC1 [LEE011/Ribociclib]; assay: as above
Neratinib/HKI272 = compound: CCOc1cc2ncc(C#N)c(Nc3ccc(OCc4ccccn4)c(Cl)c3)c2cc1NC(=O)/C=C/CN(C)C [Neratinib/HKI272]
[5] = compound: CCC1=CN=CN=C1N2CCN(CC2)CC3=NC4=C(N3)C=C(C=C4)C(F)(F)F
Paclitaxel = compound: CC(=O)O[C@H]1C(=O)[C@@]2(C)[C@H]([C@H](OC(=O)c3ccccc3)[C@]3(O)C[C@H](OC(=O)[C@H](O)[C@@H](NC(=O)c4ccccc4)c4ccccc4)C(C)=C1C3(C)C)[C@]1(OC(C)=O)CO[C@@H]1C[C@@H]2O [Paclitaxel]
[6] = compound: CO[C@@H](C)Cn1c(=O)n(C)c2cnc3ccc(-c4cncc(C(C)(C)O)c4)cc3c21
R0-3306 = compound: C1=CC2=C(C=CC(=C2)C=C3C(=O)NC(=NCC4=CC=CS4)S3)N=C1 [R0-3306]
AZD5363 = compound: NC1(C(=O)N[C@@H](CCO)c2ccc(Cl)cc2)CCN(c2nc[nH]c3nccc2-3)CC1 [AZD5363]
BVD523 = compound: CC(C)Nc1cc(-c2c[nH]c(C(=O)N[C@H](CO)c3cccc(Cl)c3)c2)c(Cl)cn1 [BVD523]
Flavopiridol [7] = compound: T1, Flavopiridol
BSJ-03-123 [8] = compound: T2, BSJ-03-123
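Throughout, for GR50, 72 h: breast cancer and non-malignant breast epithelial cell lines, Deep Dye Drop or Dye Drop imaging, nine half-log doses, GR normalized to time-zero plates and DMSO-only controls.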

Cell Line: SUM185PE
- GR value (YKL-5-124; 0.001 µM): 0.7 GR
- GR value (YKL-5-124; 0.003162 µM): 0.648 GR
- GR value (YKL-5-124; 0.01 µM): 0.517 GR
- GR value (YKL-5-124; 0.03162 µM): 0.469 GR
- GR value (YKL-5-124; 0.1 µM): 0.434 GR
- GR value (YKL-5-124; 0.3162 µM): 0.474 GR
- GR value (YKL-5-124; 1 µM): 0.496 GR
- GR value (YKL-5-124; 3.162 µM): 0.231 GR
- GR value (YKL-5-124; 10 µM): -0.008 GR
- GR value (THZ531; 0.0001 µM): 1.06 GR
- GR value (THZ531; 0.0003162 µM): 1 GR
- GR value (THZ531; 0.001 µM): 1.02 GR
- GR value (THZ531; 0.003162 µM): 1.02 GR
- GR value (THZ531; 0.01 µM): 1.03 GR
- GR value (THZ531; 0.03162 µM): 1.06 GR
- GR value (THZ531; 0.1 µM): 0.851 GR
- GR value (THZ531; 0.3162 µM): -0.187 GR
- GR value (THZ531; 1 µM): 0.19 GR
- GR value (Flavopiridol [1]; 0.0001 µM): 1 GR
- GR value (Flavopiridol [1]; 0.0003162 µM): 0.883 GR
- GR value (Flavopiridol [1]; 0.001 µM): 0.776 GR
- GR value (Flavopiridol [1]; 0.003162 µM): 0.933 GR
- GR value (Flavopiridol [1]; 0.01 µM): 0.845 GR
- GR value (Flavopiridol [1]; 0.03162 µM): 0.58 GR
- GR value (Flavopiridol [1]; 0.1 µM): 0.632 GR
- GR value (Flavopiridol [1]; 0.3162 µM): 0.458 GR
- GR value (Flavopiridol [1]; 1 µM): 0.132 GR
- GR value (THZ1; 0.0001 µM): 1.02 GR
- GR value (THZ1; 0.0003162 µM): 0.945 GR
- GR value (THZ1; 0.001 µM): 1.02 GR
- GR value (THZ1; 0.003162 µM): 0.734 GR
- GR value (THZ1; 0.01 µM): 0.855 GR
- GR value (THZ1; 0.03162 µM): -0.061 GR
- GR value (THZ1; 0.1 µM): 0.0851 GR
- GR value (THZ1; 0.3162 µM): 0.0061 GR
- GR value (THZ1; 1 µM): -0.203 GR
- GR value (BSJ-03-123 [2]; 0.001 µM): 0.901 GR
- GR value (BSJ-03-123 [2]; 0.003162 µM): 0.946 GR
- GR value (BSJ-03-123 [2]; 0.01 µM): 0.906 GR
- GR value (BSJ-03-123 [2]; 0.03162 µM): 0.922 GR
- GR value (BSJ-03-123 [2]; 0.1 µM): 0.819 GR
- GR value (BSJ-03-123 [2]; 0.3162 µM): 0.776 GR
- GR value (BSJ-03-123 [2]; 1 µM): 0.799 GR
- GR value (BSJ-03-123 [2]; 3.162 µM): 0.758 GR
- GR value (BSJ-03-123 [2]; 10 µM): 0.649 GR
- GR value ([3]; 0.001 µM): 0.941 GR
- GR value ([3]; 0.003162 µM): 0.871 GR
- GR value ([3]; 0.01 µM): 0.877 GR
- GR value ([3]; 0.03162 µM): 0.874 GR
- GR value ([3]; 0.1 µM): 0.742 GR
- GR value ([3]; 0.3162 µM): 0.691 GR
- GR value ([3]; 1 µM): 0.613 GR
- GR value ([3]; 3.162 µM): 0.595 GR
- GR value ([3]; 10 µM): 0.5 GR
- GR value ([4]; 0.0001 µM): 1.06 GR
- GR value ([4]; 0.0003162 µM): 1.2 GR
- GR value ([4]; 0.001 µM): 1.04 GR
- GR value ([4]; 0.003162 µM): 0.999 GR
- GR value ([4]; 0.01 µM): 0.955 GR
- GR value ([4]; 0.03162 µM): 0.387 GR
- GR value ([4]; 0.1 µM): 0.227 GR
- GR value ([4]; 0.3162 µM): 0.203 GR
- GR value ([4]; 1 µM): 0.171 GR
- GR value (LEE011/Ribociclib; 0.001 µM): 0.867 GR
- GR value (LEE011/Ribociclib; 0.003162 µM): 1.04 GR
- GR value (LEE011/Ribociclib; 0.01 µM): 0.798 GR
- GR value (LEE011/Ribociclib; 0.03162 µM): 0.942 GR
- GR value (LEE011/Ribociclib; 0.1 µM): 1 GR
- GR value (LEE011/Ribociclib; 0.3162 µM): 0.948 GR
- GR value (LEE011/Ribociclib; 1 µM): 0.913 GR
- GR value (LEE011/Ribociclib; 3.162 µM): 0.832 GR
- GR value (LEE011/Ribociclib; 10 µM): 0.846 GR
- GR50, 72 h (Neratinib/HKI272): 0.537 µM
- GR50, 72 h [5]: 3.03 µM
- GR50, 72 h (Paclitaxel): 0.00463 µM
- GR50, 72 h [6]: 0.00357 µM
- GR50, 72 h (R0-3306): > 10 µM
- GR50, 72 h (AZD5363): 8.7 µM
- GR50, 72 h (BVD523): > 10 µM
- GR50, 72 h (Flavopiridol [7]): 0.149 µM
- GR50, 72 h (BSJ-03-123 [8]): > 10 µM
